Literature values as cited in patent US8106000B2, “Colonic delivery of adsorbents” (Da Volterra, priority 2005, dated 2012).

Details: oral doses 1 to […]

## O=C(O)c1cn(C2CC2)c2cc(N3CCNCC3)c(F)cc2c1=O [ciprofloxacin]
  expected residual ciprofloxacin in feces (% of oral doses): ≤ 25%
